Results published in patent US20160367623A1, “AGONISTS OF GUANYLATE CYCLASE USEFUL FOR THE TREATMENT OF GASTROINTESTINAL DISORDERS, INFLAMMATION, CANCER AND OTHER DISORDERS” (priority 2015, published 2016).
Bridge positions count the residues as written; N and C are the ends. Ends that are not written are not given here.

System: patients with chronic idiopathic constipation (CIC)
Experiment: Second phase 3 CIC trial: change from baseline in CSBMs/week
Assay type: in vivo, human
Conditions: MRA
[1] = Week 3, 6 mg, ITT Population-Excluding Duplicate Patients
[2] = Week 4, 3 mg, ITT Population-Excluding Duplicate Patients
[3] = Week 4, 6 mg, ITT Population-Excluding Duplicate Patients
[4] = Week 5, 3 mg, ITT Population-Excluding Duplicate Patients
[5] = Week 5, 6 mg, ITT Population-Excluding Duplicate Patients
[6] = Week 6, 3 mg, ITT Population-Excluding Duplicate Patients
[7] = Week 6, 6 mg, ITT Population-Excluding Duplicate Patients
[8] = Week 7, 3 mg, ITT Population-Excluding Duplicate Patients
[9] = Week 7, 6 mg, ITT Population-Excluding Duplicate Patients
[10] = Week 8, 3 mg, ITT Population-Excluding Duplicate Patients

Asn^1-Asp^2-Glu^3-Cys^4-Glu^5-Leu^6-Cys^7-Val^8-Asn^9-Val^10-Ala^11-Cys^12-Thr^13-Gly^14-Cys^15-Leu^16 (NDECELCVNVACTGCL; disulfide 4-12, 7-15) [Plecanatide, uroguanylin analogue, guanylate cyclase-C agonist; (C4:C12, C7:C15) bicycle peptide]
Change from Baseline in CSBMs, Mean (SD) (Week 3, 6 mg, ITT Population): 1.82 (2.949) CSBMs/week | Change from Baseline in CSBMs, Difference from Placebo [1]: 0.61 CSBMs/week | Change from Baseline in CSBMs, LS Mean (SE) [1]: 1.83 (0.154) CSBMs/week | Change from Baseline in CSBMs, Mean (SD) [1]: 1.83 (2.958) CSBMs/week | Change from Baseline in CSBMs, Mean (SD) (Week 3, Active Combined, ITT Population-Excluding Duplicate Patients): 1.89 (3.049) CSBMs/week | Change from Baseline in CSBMs, Mean (SD) (Week 3, Active Combined, ITT Population): 1.88 (3.032) CSBMs/week | Change from Baseline in CSBMs, Difference from Placebo (Week 4, 3 mg, ITT Population): 0.91 CSBMs/week | Change from Baseline in CSBMs, LS Mean (SE) (Week 4, 3 mg, ITT Population): 2.16 (0.153) CSBMs/week | Change from Baseline in CSBMs, Mean (SD) (Week 4, 3 mg, ITT Population): 2.19 (3.395) CSBMs/week | Change from Baseline in CSBMs, Difference from Placebo [2]: 0.92 CSBMs/week | Change from Baseline in CSBMs, LS Mean (SE) [2]: 2.20 (0.156) CSBMs/week | Change from Baseline in CSBMs, Mean (SD) [2]: 2.22 (3.418) CSBMs/week | Change from Baseline in CSBMs, Difference from Placebo (Week 4, 6 mg, ITT Population): 0.75 CSBMs/week | Change from Baseline in CSBMs, LS Mean (SE) (Week 4, 6 mg, ITT Population): 2.00 (0.152) CSBMs/week | Change from Baseline in CSBMs, Mean (SD) (Week 4, 6 mg, ITT Population): 2.03 (3.243) CSBMs/week | Change from Baseline in CSBMs, Difference from Placebo [3]: 0.75 CSBMs/week | Change from Baseline in CSBMs, LS Mean (SE) [3]: 2.02 (0.154) CSBMs/week | Change from Baseline in CSBMs, Mean (SD) [3]: 2.03 (3.254) CSBMs/week | Change from Baseline in CSBMs, Mean (SD) (Week 4, Active Combined, ITT Population-Excluding Duplicate Patients): 2.13 (3.335) CSBMs/week | Change from Baseline in CSBMs, Mean (SD) (Week 4, Active Combined, ITT Population): 2.11 (3.318) CSBMs/week | Change from Baseline in CSBMs, Difference from Placebo (Week 5, 3 mg, ITT Population): 0.84 CSBMs/week | Change from Baseline in CSBMs, LS Mean (SE) (Week 5, 3 mg, ITT Population): 2.31 (0.154) CSBMs/week | Change from Baseline in CSBMs, Mean (SD) (Week 5, 3 mg, ITT Population): 2.39 (3.375) CSBMs/week | Change from Baseline in CSBMs, Difference from Placebo [4]: 0.85 CSBMs/week | Change from Baseline in CSBMs, LS Mean (SE) [4]: 2.35 (0.157) CSBMs/week | Change from Baseline in CSBMs, Mean (SD) [4]: 2.43 (3.395) CSBMs/week | Change from Baseline in CSBMs, Difference from Placebo (Week 5, 6 mg, ITT Population): 0.48 CSBMs/week | Change from Baseline in CSBMs, LS Mean (SE) (Week 5, 6 mg, ITT Population): 1.95 (0.153) CSBMs/week | Change from Baseline in CSBMs, Mean (SD) (Week 5, 6 mg, ITT Population): 1.99 (3.019) CSBMs/week | Change from Baseline in CSBMs, Difference from Placebo [5]: 0.46 CSBMs/week | Change from Baseline in CSBMs, LS Mean (SE) [5]: 1.97 (0.154) CSBMs/week | Change from Baseline in CSBMs, Mean (SD) [5]: 1.99 (3.025) CSBMs/week | Change from Baseline in CSBMs, Mean (SD) (Week 5, Active Combined, ITT Population-Excluding Duplicate Patients): 2.20 (3.216) CSBMs/week | Change from Baseline in CSBMs, Mean (SD) (Week 5, Active Combined, ITT Population): 2.18 (3.202) CSBMs/week | Change from Baseline in CSBMs, Difference from Placebo (Week 6, 3 mg, ITT Population): 1.01 CSBMs/week | Change from Baseline in CSBMs, LS Mean (SE) (Week 6, 3 mg, ITT Population): 2.32 (0.155) CSBMs/week | Change from Baseline in CSBMs, Mean (SD) (Week 6, 3 mg, ITT Population): 2.43 (3.548) CSBMs/week | Change from Baseline in CSBMs, Difference from Placebo [6]: 1.01 CSBMs/week | Change from Baseline in CSBMs, LS Mean (SE) [6]: 2.35 (0.158) CSBMs/week | Change from Baseline in CSBMs, Mean (SD) [6]: 2.45 (3.571) CSBMs/week | Change from Baseline in CSBMs, Difference from Placebo (Week 6, 6 mg, ITT Population): 0.92 CSBMs/week | Change from Baseline in CSBMs, LS Mean (SE) (Week 6, 6 mg, ITT Population): 2.24 (0.153) CSBMs/week | Change from Baseline in CSBMs, Mean (SD) (Week 6, 6 mg, ITT Population): 2.29 (3.384) CSBMs/week | Change from Baseline in CSBMs, Difference from Placebo [7]: 0.93 CSBMs/week | Change from Baseline in CSBMs, LS Mean (SE) [7]: 2.27 (0.155) CSBMs/week | Change from Baseline in CSBMs, Mean (SD) [7]: 2.31 (3.391) CSBMs/week | Change from Baseline in CSBMs, Mean (SD) (Week 6, Active Combined, ITT Population-Excluding Duplicate Patients): 2.38 (3.478) CSBMs/week | Change from Baseline in CSBMs, Mean (SD) (Week 6, Active Combined, ITT Population): 2.36 (3.464) CSBMs/week | Change from Baseline in CSBMs, Difference from Placebo (Week 7, 3 mg, ITT Population): 0.81 CSBMs/week | Change from Baseline in CSBMs, LS Mean (SE) (Week 7, 3 mg, ITT Population): 2.29 (0.155) CSBMs/week | Change from Baseline in CSBMs, Mean (SD) (Week 7, 3 mg, ITT Population): 2.40 (3.413) CSBMs/week | Change from Baseline in CSBMs, Difference from Placebo [8]: 0.83 CSBMs/week | Change from Baseline in CSBMs, LS Mean (SE) [8]: 2.33 (0.158) CSBMs/week | Change from Baseline in CSBMs, Mean (SD) [8]: 2.44 (3.435) CSBMs/week | Change from Baseline in CSBMs, Difference from Placebo (Week 7, 6 mg, ITT Population): 0.82 CSBMs/week | Change from Baseline in CSBMs, LS Mean (SE) (Week 7, 6 mg, ITT Population): 2.31 (0.154) CSBMs/week | Change from Baseline in CSBMs, Mean (SD) (Week 7, 6 mg, ITT Population): 2.38 (3.361) CSBMs/week | Change from Baseline in CSBMs, Difference from Placebo [9]: 0.83 CSBMs/week | Change from Baseline in CSBMs, LS Mean (SE) [9]: 2.34 (0.155) CSBMs/week | Change from Baseline in CSBMs, Mean (SD) [9]: 2.40 (3.369) CSBMs/week | Change from Baseline in CSBMs, Mean (SD) (Week 7, Active Combined, ITT Population-Excluding Duplicate Patients): 2.42 (3.399) CSBMs/week | Change from Baseline in CSBMs, Mean (SD) (Week 7, Active Combined, ITT Population): 2.39 (3.384) CSBMs/week | Change from Baseline in CSBMs, Difference from Placebo (Week 8, 3 mg, ITT Population): 1.01 CSBMs/week | Change from Baseline in CSBMs, LS Mean (SE) (Week 8, 3 mg, ITT Population): 2.52 (0.156) CSBMs/week | Change from Baseline in CSBMs, Mean (SD) (Week 8, 3 mg, ITT Population): 2.67 (3.747) CSBMs/week | Change from Baseline in CSBMs, Difference from Placebo [10]: 1.06 CSBMs/week | Change from Baseline in CSBMs, LS Mean (SE) [10]: 2.56 (0.158) CSBMs/week | Change from Baseline in CSBMs, Mean (SD) [10]: 2.68 (3.765) CSBMs/week | Change from Baseline in CSBMs, Difference from Placebo (Week 8, 6 mg, ITT Population): 0.82 CSBMs/week | Change from Baseline in CSBMs, LS Mean (SE) (Week 8, 6 mg, ITT Population): 2.33 (0.154) CSBMs/week
